Reference: patent publication US7722863B2, “Use of granzyme b as an hsp70/hsp70 peptide dependent inducer of apoptosis in tumor cells” (Multimmune GmbH, priority 2002, dated 2010)

How the values were obtained:
[1] = system: CX+ tumor target cells; assay: 12 h 51Cr release assay, NK cell mediated cytotoxicity; type: cell-based, human; details: E:T ratios 2:1 to 20:1; TKD 3 days
Description: (§1) The NK cell line YT was cultured at cell densities ranging from 0.1-0.5×10^6 cells/ml RPMI-1640 medium (Life Technologies, Eggenstein, Germany) containing 10% heat inactivated fetal calf serum (FCS, Life Technologies, Eggenstein, Germany) supplemented with 6 mM L-glutamine, and antibiotics (100 IU/ml penicillin and 100 μg/ml streptomycin; Life Technologies). Transient plastic adherent NK cells were derived from buffy coats of healthy human volunteers. Ficoll separated peripheral blood mononuclear cells (PBMC) were cultured in rIL-2 (100 IU/ml, Chiron, Frankfurt, Germany) for 12 h. Following adherence selection of monocyte depleted peripheral blood lymphocytes according to a modified method of Vujanovic (Vujanovic et. al. (1993) Cell. Immunol. 151, 133), cells were cultivated in RPMI-1640 medium supplemented with Hsp70-peptide TKD (2 μg/ml) for 3 days. The human tumor sublines CX+/CX− and Colo+/Colo− were derived by cell sorting of CX-2 colon (Hsp70 positive: 60%) and Colo357 pancreas (Hsp70 positive: 70%) carcinoma cell lines using the Hsp70 specific monoclonal antibody C92F3B1, according to a previously described protocol (Multhoff et. al. (1997) J. Immunol. 158, 4341).
(§2) NK cell mediated cytotoxicity was measured using a 12 h ^51Cr radioisotope assay. As target cells the colon carcinoma sublines CX+ and CX− were used. For blocking studies the mAb C92F3B1 and an isotype matched control antibody (IgG1) were used at a final concentration of 5 μg/1×10^6 cells. Following incubation of CX+ and CX− target cells with the antibodies for 30 min at 4° C., the cells were labeled with ^51Cr and the cytotoxicity assay was performed as described by MacDonald (MacDonald et. al. (1974) J. Exp. Med. 140,718). The percentage of specific lysis was calculated as: [(experimental release−spontaneous release)/(maximal release−spontaneous release)]×100.
(§3) Cell kill of CX+/CX− and Colo+/Colo− tumor cells following contact with freshly isolated, unstimulated (NK d0) or Hsp70-peptide TKD stimulated NK cells (NK d3) was quantitated in a 12 h ^51Cr release assay (FIG. 4B). […] Technically, it is not possible to quantify the absolute amount of granzyme B that is transferred from NK cells into tumor cells by cell-to-cell contact. However, relative values of granzyme B release could be determined by ELISPOT analysis. Therefore, a comparison of the cytolytic response of freshly isolated, unstimulated (NK d0) and TKD-stimulated NK cells (NK d3) against CX+/CX− and Colo+/Colo− tumor cells was performed concomitantly with the definition of the granzyme B release. […] At an E:T ratio of 5:1, the number of granzyme B spots, as determined in three independent experiments, was as follows: CX+ 260±20, CX− 165±6; Colo+ 137±55; Colo− 66±8. […]

[2] = system: Colo+ tumor target cells; assay: as above; type: cell-based, human; details: E:T ratios 2:1 to 20:1; TKD 3 days
Description: as §1, §2, §3

[3] = system: Colo− tumor target cells; assay: as above; type: cell-based, human; details: TKD 3 days
Description: as §1, §2, §3

[4] = system: CX− tumor target cells; assay: as above; type: cell-based, human; details: TKD 3 days
Description: as §1, §2, §3

[5] = system: Hsp70 membrane-positive tumor target cells; details: Hsp70-peptide 0.2-2.0 μg/ml; cited from earlier work
[6] = system: NK cells; assay: Intracellular granzyme B expression after stimulation with Hsp70-peptide TKD; type: cell-based, human
Description: The NK cell line YT was cultured at cell densities ranging from 0.1-0.5×10^6 cells/ml RPMI-1640 medium (Life Technologies, Eggenstein, Germany) containing 10% heat inactivated fetal calf serum (FCS, Life Technologies, Eggenstein, Germany) supplemented with 6 mM L-glutamine, and antibiotics (100 IU/ml penicillin and 100 μg/ml streptomycin; Life Technologies). Transient plastic adherent NK cells were derived from buffy coats of healthy human volunteers. Ficoll separated peripheral blood mononuclear cells (PBMC) were cultured in rIL-2 (100 IU/ml, Chiron, Frankfurt, Germany) for 12 h. […]
Cells (0.5×10^6) were fixed in paraformaldehyde (1% PFA in PBS) for 10 min, and permeabilized in PBS containing BSA (0.5%), NaN3 (0.1%), and saponin (0.1%). […] Following washing cells were analysed on a FACSCalibur instrument (Becton Dickinson, Heidelberg, Germany).
The physiological role of our findings was tested in functional assays using naive and Hsp70 stimulated human NK cells. […] Although Hsp70 acts as a tumor-selective recognition structure for NK cells, as determined by antibody blocking studies (Multhoff et. al. (1997) J. Immunol. 158,4341; Multhoff et. al. (1995) Blood 86,1374), the NK-cytotoxic mechanism remains unclear. […]

[7] = system: CD3 positive T cells; assay: Intracellular granzyme B expression after treatment with Hsp70-peptide TKD; type: cell-based, human; details: treated with Hsp70-peptide TKD
Description: The physiological role of our findings was tested in functional assays using naive and Hsp70 stimulated human NK cells. […] Although Hsp70 acts as a tumor-selective recognition structure for NK cells, as determined by antibody blocking studies (Multhoff et. al. (1997) J. Immunol. 158,4341; Multhoff et. al. (1995) Blood 86,1374), the NK-cytotoxic mechanism remains unclear. To elucidate the possible mechanism, NK cells were incubated with Hsp70-peptide TKD ([…]) for 3 days. […] In contrast, granzyme B expression was not increased in CD3 positive T cells treated with Hsp70-peptide TKD. Light microscopical analysis of Hsp70-peptide activated NK cells co-incubated with Hsp70 membrane-positive CX+ and Hsp70 membrane-negative CX− cells is illustrated in FIG. 4A. Hsp70 membrane-positive CX+ and Hsp70 membrane-negative CX− tumor cells (0.1×10^6 cells/ml) were cultured in duplicates in 24 well plates for 2 days. […] CX+ and CX− tumor cells in the upper panel were cultured in the absence of NK cells; tumor cells in the lower panel were co-cultured for 12 h with NK cells that had been stimulated with Hsp70-peptide TKD (2 μg/ml, 3 days). Nearly 100% of the CX+ cell colonies were found in clusters with NK cells and viability of CX+ tumor cells appears to be reduced. […]

[8] = system: CX− tumor cells; assay: Granzyme B ELISPOT, NK cells co-incubated with tumor cells; type: cell-based, human; details: TKD-stimulated NK cells (NK d3), 4 h coincubation, E:T 5:1, three independent experiments
Description: (§4) Granzyme B release was compared in unstimualted NK cells (NK d0) and TKD stimulated NK cells (NK d3) after a 4 h co-incubation period with tumor cell lines CX+/CX− and Colo+/Colo−, at different effector to target cell ratios (E:T) ranging from 20:1 to 2:1. For detection a Granzyme B ELISPOT kit (#552572, BD, Heidelberg, Germany) was used. Briefly, 96-well ELISPOT plates (MAIPN45, Millipore) were coated overnight at 4° C. with capture antibody, blocked with RPMI-1640 culture medium containing 10% FCS and incubated with tumor and effector cells for 4 h at 37° C., as specified before. After washing in deionized water and wash buffers A and B, biotinylated anti-granzyme B antibody was added (2 μg/ml) for 2 h. After another two washing steps granzyme B was visualized by the addition of freshly prepared avidin-horseradish peroxidase (2 h) and substrate solution (25 min incubation period). Spots were counted automatically using ImmunoSpot Series I Analyzer. ^51Cr Release Assay and Inhibition Assay
(§5) Cell kill of CX+/CX− and Colo+/Colo− tumor cells following contact with freshly isolated, unstimulated (NK d0) or Hsp70-peptide TKD stimulated NK cells (NK d3) was quantitated in a 12 h ^51Cr release assay (FIG. 4B). […] Technically, it is not possible to quantify the absolute amount of granzyme B that is transferred from NK cells into tumor cells by cell-to-cell contact. However, relative values of granzyme B release could be determined by ELISPOT analysis. Therefore, a comparison of the cytolytic response of freshly isolated, unstimulated (NK d0) and TKD-stimulated NK cells (NK d3) against CX+/CX− and Colo+/Colo− tumor cells was performed concomitantly with the definition of the granzyme B release. Irrespectively of the tumor cell line and the E:T cell ratio, co-incubation of tumor cells with unstimulated NK cells (NK d0), always results in very low granzyme B release; the number of spots was always less than 20. […] At an E:T ratio of 5:1, the number of granzyme B spots, as determined in three independent experiments, was as follows: CX+ 260±20, CX− 165±6; Colo+ 137±55; Colo− 66±8. […] It was hypothesized that interaction of granzyme B with membrane-bound Hsp70-peptide TKD is key for its uptake into tumor cells and for the induction of apoptosis. When NK cells were removed by washing with PBS and the tumor cells were stained with DAPI. […] Identical results were obtained with Annexin V-FITC staining (data not shown).

[9] = system: Colo+ tumor cells; assay: as above; type: cell-based, human; details: TKD-stimulated NK cells (NK d3), 4 h coincubation, E:T 5:1, three independent experiments
Description: as §4, §5

[10] = system: CX+ tumor cells; assay: as above; type: cell-based, human; details: TKD-stimulated NK cells (NK d3), 4 h coincubation, E:T 5:1, three independent experiments
Description: as §4, §5

[11] = system: Colo− tumor cells; assay: as above; type: cell-based, human; details: TKD-stimulated NK cells (NK d3), 4 h coincubation, E:T 5:1, three independent experiments
Description: as §4, §5

[12] = system: Hsp70 membrane-negative CX− cells; assay: Microscopy of tumor cells co-incubated with Hsp70-peptide TKD stimulated NK cells; type: cell-based, human
Description: (§6) FIG. 4A: Light microscopy (magnification 20×) of Hsp70 membrane-positive CX+ and Hsp70 membrane-negative CX− cell colonies, either untreated (control) or following a 12 h co-incubation with Hsp70-peptide TKD stimulated NK cells (+NK). The effector to target cell ratio (E:T) was 20:1.
(§7) The physiological role of our findings was tested in functional assays using naive and Hsp70 stimulated human NK cells. […] Although Hsp70 acts as a tumor-selective recognition structure for NK cells, as determined by antibody blocking studies (Multhoff et. al. (1997) J. Immunol. 158,4341; Multhoff et. al. (1995) Blood 86,1374), the NK-cytotoxic mechanism remains unclear. To elucidate the possible mechanism, NK cells were incubated with Hsp70-peptide TKD ([…]) for 3 days. […] In contrast, granzyme B expression was not increased in CD3 positive T cells treated with Hsp70-peptide TKD. Light microscopical analysis of Hsp70-peptide activated NK cells co-incubated with Hsp70 membrane-positive CX+ and Hsp70 membrane-negative CX− cells is illustrated in FIG. 4A. Hsp70 membrane-positive CX+ and Hsp70 membrane-negative CX− tumor cells (0.1×10^6 cells/ml) were cultured in duplicates in 24 well plates for 2 days. […] CX+ and CX− tumor cells in the upper panel were cultured in the absence of NK cells; tumor cells in the lower panel were co-cultured for 12 h with NK cells that had been stimulated with Hsp70-peptide TKD (2 μg/ml, 3 days). Nearly 100% of the CX+ cell colonies were found in clusters with NK cells and viability of CX+ tumor cells appears to be reduced. […] Cell viability of CX− tumor cells following contact with NK cells appears to be less affected, as compared to that of CX+ tumor cells. The inserts in the lower right corner of each graph illustrates a 2.5× magnification of one representative cell colony.
as §3

[13] = system: Hsp70 membrane-positive CX+ cells; assay: as above; type: cell-based, human
Description: as §6, §7, §3

[14] = 12 h co-culture with NK cells stimulated with TKD 2 μg/ml, 3 days, E:T 20:1

Question: What does the source list for “TKDNNLLGRFELSG (listed as Homo sapiens) [Hsp70-peptide TKD]”?
Answer: lysis of CX+ cells, TKD stimulated (NK d3) versus naive NK cells (NK d0) [1]: 1.5 fold; lysis of Colo+ cells, TKD stimulated (NK d3) versus naive NK cells (NK d0) [2]: 2.0 fold; lysis of Colo− tumor cells, NK d3 versus NK d0 [3]: remained unaffected; lysis of CX− tumor cells, NK d3 versus NK d0 [4]: remained unaffected; cytolytic activity of NK cells against Hsp70 membrane-positive tumor target cells [5]: increased cytolytic activity; intracellular granzyme B levels, TKD stimulated NK cells (NK d3) versus naive NK cells (NK d0) ([6]; Hsp70-peptide TKD 2 μg/ml, 3 days): 1.4 fold; intracellular granzyme B expression in NK cells ([6]; Hsp70-peptide TKD for 3 days, 3 independent experiments): significantly elevated; granzyme B expression in CD3 positive T cells [7]: not increased; number of granzyme B spots [8]: 165±6; number of granzyme B spots [9]: 137±55; number of granzyme B spots [10]: 260±20; number of granzyme B spots [11]: 66±8; CX− tumor cells in clusters with NK cells [12, 14]: not found in clusters; DNA fragmentation (DAPI) in CX− cells after co-incubation with TKD activated NK cells ([12]; NK cells removed by washing): not; CX+ cell colonies found in clusters with NK cells [13, 14]: ~100%; DNA fragmentation (DAPI) in CX+ cells after co-incubation with TKD activated NK cells ([13]; NK cells removed by washing): showed DNA fragmentation
